From patent US4220755A, “Fortimicin B derivatives and process for production thereof” (Abbott Laboratories, priority 1976, dated 1980)
≈ marks a conversion by molar mass, not a printed value. Like-named read-outs stand apart in the source and are kept apart here.

Assays:
Assay in all cases: MIC, agar dilution method, pH 8.0
Assay type in all cases: cell-based
[1] = tested on: Eschericia coli KY4271 ATCC26; settings: Escherichia coli
Description: (§1) Measurement was carried out according to the agar dilution method, using a medium of pH 8.0, or the Japanese Antibiotic Medicament Standard, using a medium of pH 7.2 Units are in mcg/ml.
E.C.: Eschericia coli KY4271 ATCC26

[2] = tested on: Salmonella typhosa KY4278 ATCC9992; settings: Salmonella enterica, pH 8, read-out: Minimum inhibition concentration (MIC), ST
Description: as §1
S.T.: Salmonella typhosa KY4278 ATCC9992

[3] = tested on: Staphylococcus aureus KY4279 ATCC6538P
Description: as §1
S.A.: Staphylococcus aureus KY4279 ATCC6538P

[4] = tested on: Shigella sonnei KY4281 ATCC9290
Description: as §1

[5] = tested on: Proteus vulgaris KY4277 ATCC6897
Description: as §1

Bacillus subtilis KY4273 = tested on: Bacillus subtilis KY4273
Description: as §1
B.S.: Bacillus subtilis KY4273

[6] = tested on: Klebsiella pneumoniae KY4275 ATCC10031; settings: ATCC10031; pH 8.0; Klebsiella pneumoniae KY4275; read-out: Minimum inhibition concentration (MIC), KP
Description: as §1
K.P.: Klebsiella pneumoniae KY4275 ATCC10031.

[7] = ATCC26, pH 8, read-out: Minimum inhibition concentration (MIC), EC
[8] = pH 8.0, Staphylococcus aureus KY4279, read-out: Minimum inhibition concentration (MIC), SA
[9] = ATCC9290, pH 8.0, Shigella sonnei KY4281, read-out: Minimum inhibition concentration (MIC), SS
[10] = Proteus vulgaris, ATCC6897, pH 8, read-out: Minimum inhibition concentration (MIC), PV
[11] = Bacillus subtilis, KY4273, pH 8, read-out: Minimum inhibition concentration (MIC), BS
[12] = ATCC26, pH 8.0, E. coli KY4271, read-out: Minimum inhibition concentration (MIC), EC
[13] = Staphylococcus aureus, pH 8, read-out: Minimum inhibition concentration (MIC), SA
[14] = ATCC6897, pH 8.0, Proteus vulgaris KY4277, read-out: Minimum inhibition concentration (MIC), PV
[15] = pH 8.0, Bacillus subtilis KY4273, read-out: Minimum inhibition concentration (MIC), BS

Compound | MIC [1, 7] [µg/mL] | MIC [2] [µg/mL] | MIC [3, 8] [µg/mL] | MIC [4, 9] [µg/mL] | MIC [5, 10] [µg/mL] | MIC (Bacillus subtilis KY4273; [11]) [µg/mL] | MIC [6] [µg/mL] | MIC [1, 12] [µg/mL] | MIC [3, 13] [µg/mL] | MIC [5, 14] [µg/mL] | MIC (Bacillus subtilis KY4273; [15]) [µg/mL] | MIC ([4]; Shigella sonnei, ATCC9290, pH 8, read-out: Minimum inhibition concentration (MIC), SS) [µg/mL]
CCCN(C)[C@H]1[C@@H](O)[C@H](O[C@H]2O[C@H]([C@H](C)N)CC[C@H]2N)[C@@H](N)[C@H](O)[C@@H]1OC [Compound 17, 4-N-(n-propyl)fortimicin B] | 6.25 (≈ 16 µM) | 6.25 (≈ 16 µM) | 3.13 (≈ 8.01 µM) | 12.5 (≈ 32 µM) | 12.5 (≈ 32 µM) | 12.5 (≈ 32 µM) | 100 (≈ 256 µM) |  |  |  |  | 
CO[C@H]1[C@@H](O)[C@H](N)[C@@H](O[C@H]2O[C@H]([C@H](C)N)CC[C@H]2N)[C@H](O)[C@@H]1N(C)CCCN [Compound 20, 4-N-(3-aminopropyl)fortimicin B] |  | 1.25 (≈ 3.08 µM) |  | 20 (≈ 49.3 µM) |  |  | 80 (≈ 197 µM) | 5 (≈ 12.3 µM) | 1.25 (≈ 3.08 µM) | 10 (≈ 24.7 µM) | 2.5 (≈ 6.16 µM) | 
CCCCC(=O)N(C)[C@H]1[C@@H](O)[C@H](O[C@H]2O[C@H]([C@H](C)N)CC[C@H]2N)[C@@H](N)[C@H](O)[C@@H]1OC [Compound 8, 4-N-(n-valeryl)fortimicin B] |  | > 200 | 100 (≈ 231 µM) | > 200 |  |  | > 200 | > 100 |  | > 200 | 25 (≈ 57.8 µM) | 
CO[C@H]1[C@@H](O)[C@H](N)[C@@H](O[C@H]2O[C@H]([C@H](C)N)CC[C@H]2N)[C@H](O)[C@@H]1N(C)C(=O)CCCCCN [Compound 12, 4-N-(ε-amino-n-caproyl)fortimicin B] |  | > 20 | > 20 | > 20 |  |  | > 20 | > 20 |  | > 20 | > 20 | 
CCN(C)[C@H]1[C@@H](O)[C@H](O[C@H]2O[C@H]([C@H](C)N)CC[C@H]2N)[C@@H](N)[C@H](O)[C@@H]1OC [Compound 16, 4-N-ethylfortimicin B] | 3.13 (≈ 8.31 µM) | 3.13 (≈ 8.31 µM) | 1.56 (≈ 4.14 µM) | 6.25 (≈ 16.6 µM) | 6.25 (≈ 16.6 µM) | 3.13 (≈ 8.31 µM) | 50 (≈ 133 µM) |  |  |  |  | 
CO[C@H]1[C@@H](O)[C@H](N)[C@@H](O[C@H]2O[C@H]([C@H](C)N)CC[C@H]2N)[C@H](O)[C@@H]1N(C)CCO [Compound 24, 4-N-(2-hydroxyethyl)fortimicin B] |  | 1.25 (≈ 3.18 µM) |  | 10 (≈ 25.5 µM) |  |  | 40 (≈ 102 µM) | 5 (≈ 12.7 µM) | 1.25 (≈ 3.18 µM) | 10 (≈ 25.5 µM) | > 80 | 
CCCCCN(C)[C@H]1[C@@H](O)[C@H](O[C@H]2O[C@H]([C@H](C)N)CC[C@H]2N)[C@@H](N)[C@H](O)[C@@H]1OC [Compound 19, 4-N-(n-pentyl)fortimicin B] |  | 100 (≈ 239 µM) | 25 (≈ 59.7 µM) | 100 (≈ 239 µM) |  |  | > 200 | 100 (≈ 239 µM) |  | > 200 | 200 (≈ 478 µM) | 
CO[C@H]1[C@@H](O)[C@H](N)[C@@H](O[C@H]2O[C@H]([C@H](C)N)CC[C@H]2N)[C@H](O)[C@@H]1N(C)CCCCN [Compound 21, 4-N-(4-aminobutyl)fortimicin B] | 1.25 (≈ 2.98 µM) | 1.25 (≈ 2.98 µM) | 0.32 (≈ 0.763 µM) | 2.5 (≈ 5.96 µM) |  |  | 5 (≈ 11.9 µM) |  |  | 2.5 (≈ 5.96 µM) | 0.32 (≈ 0.763 µM) | 
CCCC(=O)N(C)[C@H]1[C@@H](O)[C@H](O[C@H]2O[C@H]([C@H](C)N)CC[C@H]2N)[C@@H](N)[C@H](O)[C@@H]1OC [Compound 7, 4-N-(n-butyryl)fortimicin B] |  | 12.5 (≈ 29.9 µM) | 6.25 (≈ 14.9 µM) | 50 (≈ 119 µM) |  | 12.5 (≈ 29.9 µM) | 25 (≈ 59.7 µM) | 6.25 (≈ 14.9 µM) |  | 100 (≈ 239 µM) |  | 
CNCCN(C)[C@H]1[C@@H](O)[C@H](O[C@H]2O[C@H]([C@H](C)N)CC[C@H]2N)[C@@H](N)[C@H](O)[C@@H]1OC [Compound 26, 4-N-(2-methylaminoethyl)fortimicin B] |  | 1.25 (≈ 3.08 µM) | 0.04 (≈ 0.0986 µM) | 5 (≈ 12.3 µM) | 1.25 (≈ 3.08 µM) |  | 5 (≈ 12.3 µM) | 0.16 (≈ 0.395 µM) |  |  | 0.32 (≈ 0.789 µM) | 
CO[C@H]1[C@@H](O)[C@H](N)[C@@H](O[C@H]2O[C@H]([C@H](C)N)CC[C@H]2N)[C@H](O)[C@@H]1N(C)C(=O)CCN [Compound 9, 4-N-(β-alanyl)fortimicin B] |  | 0.32 (≈ 0.763 µM) | 0.08 (≈ 0.191 µM) | 1.25 (≈ 2.98 µM) |  |  | 0.32 (≈ 0.763 µM) | 0.63 (≈ 1.5 µM) |  | 0.63 (≈ 1.5 µM) | 0.08 (≈ 0.191 µM) | 
CO[C@H]1[C@@H](O)[C@H](N)[C@@H](O[C@H]2O[C@H]([C@H](C)N)CC[C@H]2N)[C@H](O)[C@@H]1N(C)CCCCCN [Compound 22, 4-N-(5-aminopentyl)fortimicin B] |  | 2.5 (≈ 5.77 µM) | 1.25 (≈ 2.88 µM) | 5 (≈ 11.5 µM) |  |  | 20 (≈ 46.1 µM) | 5 (≈ 11.5 µM) |  | 10 (≈ 23.1 µM) | 0.63 (≈ 1.45 µM) | 
CO[C@H]1[C@@H](O)[C@H](N)[C@@H](O[C@H]2O[C@H]([C@H](C)N)CC[C@H]2N)[C@H](O)[C@@H]1N(C)C[C@@H](O)CCCN [Compound 33, 4-N-[(S)-5-amino-2-hydroxypentyl]fortimicin B] |  | 10 (≈ 22.2 µM) | 0.32 (≈ 0.712 µM) |  |  | 1.25 (≈ 2.78 µM) |  | 2.5 (≈ 5.56 µM) |  | 5 (≈ 11.1 µM) |  | 1.25 (≈ 2.78 µM)
CO[C@H]1[C@@H](O)[C@H](N)[C@@H](O[C@H]2O[C@H]([C@H](C)N)CC[C@H]2N)[C@H](O)[C@@H]1N(C)C(=O)CCCN [Compound 10, 4-N-(γ-amino-n-butyryl)fortimicin B] |  | 0.63 (≈ 1.45 µM) | 0.32 (≈ 0.738 µM) | 2.5 (≈ 5.77 µM) |  |  | 2.5 (≈ 5.77 µM) | 1.25 (≈ 2.88 µM) |  | 1.25 (≈ 2.88 µM) | 0.16 (≈ 0.369 µM) | 
CNC[C@H](O)CN(C)[C@H]1[C@@H](O)[C@H](O[C@H]2O[C@H]([C@H](C)N)CC[C@H]2N)[C@@H](N)[C@H](O)[C@@H]1OC [Compound 32, 4-N-[(S)-3-methylamino-2-hydroxypropyl]fortimicin B] |  | 0.63 (≈ 1.45 µM) | 0.16 (≈ 0.367 µM) | 2.5 (≈ 5.74 µM) |  |  | 5 (≈ 11.5 µM) | 2.5 (≈ 5.74 µM) |  | 2.5 (≈ 5.74 µM) | 0.63 (≈ 1.45 µM) | 
CNCCC(O)CN(C)[C@H]1[C@@H](O)[C@H](O[C@H]2O[C@H]([C@H](C)N)CC[C@H]2N)[C@@H](N)[C@H](O)[C@@H]1OC (stereo partly drawn) [Compound 30, 4-N-[(R,S)-4-methylamino-2-hydroxybutyl]fortimicin B] |  | 0.08 (≈ 0.178 µM) | 0.08 (≈ 0.178 µM) | 0.63 (≈ 1.4 µM) |  |  | 0.32 (≈ 0.712 µM) | 0.32 (≈ 0.712 µM) |  | 0.16 (≈ 0.356 µM) | 0.02 (≈ 0.0445 µM) | 
CO[C@H]1[C@@H](O)[C@H](N)[C@@H](O[C@H]2O[C@H]([C@H](C)N)CC[C@H]2N)[C@H](O)[C@@H]1N(C)C[C@@H](O)CN [Compound 31, 4-N-[(S)-3-amino-2-hydroxypropyl]fortimicin B] |  | 0.63 (≈ 1.49 µM) | 0.16 (≈ 0.38 µM) | 2.5 (≈ 5.93 µM) |  |  | 2.5 (≈ 5.93 µM) | 2.5 (≈ 5.93 µM) |  | 1.25 (≈ 2.97 µM) | 0.32 (≈ 0.759 µM) | 
CO[C@H]1[C@@H](O)[C@H](N)[C@@H](O[C@H]2O[C@H]([C@H](C)N)CC[C@H]2N)[C@H](O)[C@@H]1N(C)C(C)=O [Compound 5, 4-N-acetylfortimicin B] |  | 50 (≈ 128 µM) | 12.5 (≈ 32 µM) | 50 (≈ 128 µM) |  |  | > 200 | 50 (≈ 128 µM) |  | 100 (≈ 256 µM) | 50 (≈ 128 µM) | 
